Measurements published in patent publication US20220313651A1, “INHIBITORS OF ZIKA VIRUS INFECTION” (priority 2019, published 2022).
Where two headings read alike, the source gives them in different places.

Legend:
[1] = test system: ZIKV human strain R103451 (2015/Honduras); assay: Plaque reduction inhibition assay in Vero E6 cells, ZIKV R103451; assay type: cell-based, Zika virus (ZIKV)
Method: (§1) A plaque reduction inhibition assay was carried out to measure the inhibitory activity of Z-medicaments against infections of ZIKV and DENV. […] The compound-virus mixtures were then transferred to Vero E6 cells (10^5/well) and incubated at 37° C. for 1 h.

[2] = test system: ZIKV human strain PAN2016 (2016/Panama); assay: Plaque reduction inhibition assay in Vero E6 cells, ZIKV PAN2016; assay type: cell-based, Zika virus (ZIKV)
Method: as §1

ZIKV NS2B-NS3 protease = molecular target: T1, ZIKV NS2B-NS3 protease (Zika virus, UniProt Q32ZE1); assay: ELISA binding to ZIKV NS2B-NS3 protease
T1 construct: 49-97) and NS2 protein (residues 1-185) through a covalent; made in house; host or cells: E. coli
Method: Binding of compounds (NPs) to ZIKV full-length E (FIG. 3A), EDIII (FIG. 3B), and NS2B-NS3 (FIG. 3C) proteins, was detected by ELISA. The percent binding was reported in the presence or absence of serially diluted NPs using the formula (1-[E/EDIII-NP]/[E/EDIII])×100 (for E/EDIII binding) or (1-[NS2B-NS3-NP]/[NS2B-NS3])×100 (for NSEB-NS3 binding). […] The concentrations of ZIKV EDIII and mAbs were 1.5 and 0.5 μg/ml, respectively. […] The concentrations of substrate (Bz-Nle-Lys-Lys-Arg-AMC) and ZIKV NS2B-NS3 protein were 4 μM and 1 μg/ml, respectively. The percent inhibition of protease activity was calculated in the presence or absence of serially diluted compounds using the formula (1-[NS2B-NS3-substrate-NP]/[NS2B-NS3-substrate])×100. The IC50 values were calculated based on the percent inhibition. The data are expressed as mean±s.e.m. (n=4).
The data are expressed as mean±s.e.m. (n=4), and DMSO was used as negative control. Surface plasmon resonance (SPR) analysis of the binding between ST087010 and ZIKV EDIII (FIG. 6D) or NS2B-NS3 (FIG. 6E) protein was performed. Binding affinity was shown as KD (equilibrium dissociation constant).
The binding between the Z-medicament and ZIKV full-length E protein, EDIII protein (E residues 298-409 fused with a C-terminal human Fc), or NS2B-NS3 protease was carried out by ELISA. Briefly, ELISA plates were pre-coated with the proteins described above at 4° C. overnight, and blocked with 2% fat-free milk at 37° C. for 2 h. Serial dilutions of the Z-medicament or DMSO (control) were then added to the plates and incubated at 37° C. for 2 h. The plates were washed with PBS containing Tween-20 (PBST), and incubated at 37° C. for 1 h with ZIKV EDIII-specific human mAb ZKA64-LALA (0.5 μg/ml) (for binding to ZIKV full-length E and EDIII proteins), or mouse sera specific to ZIKV NS2B-NS3 (for binding to NS2B-NS3 protease). The plates were washed with PBST, and incubated with horseradish peroxidase (HRP)-conjugated anti-human IgG-Fab (1:3000) or anti-mouse IgG (1:3000) antibody at 37° C. for 1 h. The 3,3′,5,5′-tetramethylbenzidine (TMB) substrate was added to the plates, and the reaction was stopped by 1 N H2SO4. Absorbance at 450 nm (A450 value) was measured by ELISA microplate reader.
Briefly, ELISA plates were coated with each protein (1 μg/ml) at 4° C. overnight, and were then incubated with blocking buffer containing 2% fat-free milk in PBST at 37° C. for 2 h. The above compounds, or DMSO control, at serial dilutions were added to the plates, and incubated at 37° C. for 2 h. After three washes using PBST, the plates were incubated at 37° C. for 2 h with ZIKV EDIII-specific human mAb ZKA64-LALA (0.5 μg/ml) (for binding to ZIKV full-length E or EDIII protein), or ZIKV NS2B-NS3-specific mouse sera (for binding to NS2B-NS3 protein). After further washes, the plates were incubated with HRP-conjugated anti-human IgG-Fab (1:3,000) or anti-mouse IgG (1:3,000) antibody at 37° C. for 1 h.

ZIKV PRVABC59 strain = assay: Combinatorial effects of gossypol with other Z-medicaments, ZIKV PRVABC59; assay type: cell-based, Zika virus (ZIKV); conditions: for Fold of Enhancement: IC50 alone / in mixture; for CI (combination index): named compound in combination with gossypol
Method: The unbound viruses and Z-medicaments were removed, and the cells were cultured at 37° C. for 4-5 days, followed by staining with 0.5% crystal violet. The Z-medicaments without combinations were used as controls. The IC50 of the Z-medicaments was calculated as described above.
The Z-medicaments were then analyzed for synergistic effects based on the combination index (CI) and IC50 values using the CalcuSyn program. Specifically, CI values <1 and >1 indicate synergy and antagonism, respectively. Synergy was further identified as five different categories: CI values <0.1, 0.1-0.3, 0.3-0.7, 0.7-0.85, and 0.85-0.90 indicate very strong synergism, strong synergism, synergism, moderate synergism, and slight synergism, respectively. Fold enhancement of anti-ZIKV potency is expressed as the ratio of molar concentrations of the Z-medicaments tested alone and in the mixture.

[3] = Zika virus, Vero C1008, Vero E6 cells, Table 1, read-out: IC50 against ZIKV strain R103451
[4] = Zika virus, Vero C1008, Vero E6 cells, Table 1, read-out: IC50 against ZIKV strain PAN2016

## Cc1cc2c(C(C)C)c(O)c(O)c(/C=N/n3c(=O)[nH][nH]c3=O)c2c(O)c1-c1c(C)cc2c(C(C)C)c(O)c(O)c(/C=N/n3c(=O)[nH][nH]c3=O)c2c1O [ST087010]
[1]; Vero E6 cells, Table 7, gossypol derivatives, read-out: ZIKV strains IC50, R103451
  IC50: 3.6 ± 0.07 µM
[2]; Vero E6 cells, Table 7, gossypol derivatives, read-out: ZIKV strains IC50, PAN2016
  IC50: 3.17 ± 0.18 µM
ZIKV NS2B-NS3 protease; detected with NS2B-NS3-immunized mouse sera, read-out: EC50, binding to ZIKV NS2B-NS3 protein
  EC50: 21.9 µM

## Cc1cc2c(C(C)C)c(O)c(O)c(C=O)c2c(O)c1-c1c(C)cc2c(C(C)C)c(O)c(O)c(C=O)c2c1O [Gossypol, gossypol]
[1]; [3]
  IC50: 2.28 ± 0.1 µM
[1]; Zika virus, Vero C1008, read-out: ZIKV strains IC50, R103451
  IC50: 3.12 ± 0.38 µM
[2]; [4]
  IC50: 3.48 µM
[2]; Zika virus, Vero C1008, read-out: ZIKV strains IC50, PAN2016
  IC50: 3.78 ± 0.3 µM

## C[C@@H]1CC[C@@]2(OC1)O[C@H]1[C@@H](O)[C@H]3[C@@H]4CC[C@H]5C[C@@H](O[C@@H]6O[C@H](CO)[C@H](O[C@@H]7O[C@H](CO)[C@@H](O)[C@H](O[C@@H]8OC[C@@H](O)[C@H](O)[C@H]8O)[C@H]7O[C@@H]7O[C@H](CO)[C@H](O)[C@H](O[C@@H]8O[C@H](CO)[C@@H](O)[C@H](O)[C@H]8O)[C@H]7O)[C@H](O)[C@H]6O)[C@H](O)C[C@]5(C)[C@H]4CC[C@]3(C)[C@H]1[C@@H]2C [Digitonin, digitonin]
[1]; [3]
  IC50: 4.3 ± 0.43 µM
ZIKV PRVABC59 strain; gossypol + digitonin
  Fold of Enhancement: 6.98
ZIKV PRVABC59 strain
  CI (combination index): 0.29
[2]; [4]
  IC50: 4.31 µM
ZIKV NS2B-NS3 protease
  Binding to ZIKV NS2B-NS3 protein (in words): bound to no ZIKV proteins tested

## COc1cc(/C=C/C(=O)CC(=O)/C=C/c2ccc(O)c(OC)c2)ccc1O [Curcumin, curcumin]
ZIKV PRVABC59 strain; gossypol + curcumin
  Fold of Enhancement: 6.46
ZIKV PRVABC59 strain
  CI (combination index): 0.30
ZIKV NS2B-NS3 protease
  Binding to ZIKV NS2B-NS3 protein (in words): much lower binding affinity

## C[C@H]1[C@H]2CC[C@H]3[C@@H]4CC=C5C[C@@H](N(C)C)CC[C@]5(C)[C@H]4CC[C@]23CN1C [Conessine, conessine]
ZIKV PRVABC59 strain; gossypol + conessine
  Fold of Enhancement: 7.29
ZIKV PRVABC59 strain
  CI (combination index): 0.28
ZIKV NS2B-NS3 protease
  Binding to ZIKV NS2B-NS3 protein (in words): bound to no ZIKV proteins tested
